The values below are quoted from earlier work in patent publication US20050191370A1, “Vitamin/metal salt compositions for reducing hair loss and/or promoting hair regrowth” (L'OREAL, priority 2000, published 2005).

This data set relates to lung cancers in smokers.

In the case of `CC1=C(/C=C/C(C)=C/C=C/C(C)=C/C=C/C=C(C)/C=C/C=C(C)/C=C/C2=C(C)CCCC2(C)C)C(C)(C)CCC1` [beta-carotene], for the setting “after 5 years of administration”, the “decrease in the incidence of lung cancers” value is given as “No decrease”. The additional deaths (men who received beta-carotene, population of 29,139 men who were smokers) was 8%. In addition, the “increase in lung cancers” value (men who received beta-carotene, population of 29,139 men who were smokers, Finland) is recorded as 18%.
